{"source": "patent US6395896B2", "about": "“Pyridazine derivatives, manufacturing method and related composition” (Shiseido Co., Ltd., priority 1999, dated 2002)", "key": {"skin (antebrachium)": {"tested_on": "skin (antebrachium)", "experiment": "Skin irritation test: occlusive patch test", "type": "in vivo, human", "conditions": "10 wt % ultraviolet absorbent, occlusive patch 24 hours", "procedure": "Sample (10 wt % of ultraviolet absorbent) is the same as test example 2. An occlusive patch test was carried out in the antebrachium part of healthy men and women subjects by finchamber for 24 hours. Each group was twenty subjects. [table] Each of the calculated average scores was evaluated by the following evaluation standard. A: average score is 0. B: average score is over 0 and less than 1. C: average score is 1 or more and less than 2. D: average score is 2 or more."}, "[1]": {"experiment": "Colorant stabilization effect (photostabilizer, sunlight exposure)", "design": "key to Sunlight exposure (80 MJ) Appearance: A: No change; B: No almost change; C: Yes change; key to Sunlight exposure (80 MJ) ΔE: ΔE color difference (Lab) vs. color before sunlight exposure", "procedure": "First of all, the photostabilization effect and appearance change of a composition in each pigment were studied by the following evaluation formulation.\nEach test sample was prepared. Observation of appearance change (visual evaluation) and measurement of color difference (ΔE) were carried out in samples exposed to sunlight exposure (around 80 MJ).\nColor difference was measured by Lab coordinate system with spectrophotometer. Color difference was calculated on the basis of the color before sunlight exposure. Namely, from measured value (L1,a1,b1) before sunlight exposure, color difference (ΔE) was calculated by following formula."}, "[2]": {"conditions": "Blue No. 1 0.00001 wt %, photostabilizer 0.05 wt %"}, "[3]": {"conditions": "Blue No. 1 0.00001 wt %, photostabilizer 0.1 wt %"}, "[4]": {"conditions": "Blue No. 1 0.00001 wt %, photostabilizer 0.3 wt %"}, "[5]": {"conditions": "Blue No. 1 0.0001 wt %, photostabilizer 0.03 wt %"}, "[6]": {"conditions": "Blue No. 1 0.0001 wt %, photostabilizer 0.05 wt %"}, "[7]": {"conditions": "Blue No. 1 0.0001 wt %, photostabilizer 0.1 wt %"}, "[8]": {"conditions": "Green No. 3 0.00001 wt %, photostabilizer 0.03 wt %"}, "[9]": {"conditions": "Green No. 3 0.00001 wt %, photostabilizer 0.1 wt %"}, "[10]": {"conditions": "Green No. 3 0.00001 wt %, photostabilizer 0.3 wt %"}, "[11]": {"conditions": "Green No. 3 0.0001 wt %, photostabilizer 0.02 wt %"}, "[12]": {"conditions": "Green No. 3 0.0001 wt %, photostabilizer 0.05 wt %"}, "[13]": {"conditions": "Green No. 3 0.0001 wt %, photostabilizer 0.1 wt %"}, "[14]": {"conditions": "Red No. 106 0.00001 wt % + Yellow No. 5 0.0001 wt %, photostabilizer 0.03 wt %"}, "[15]": {"conditions": "Red No. 106 0.00001 wt % + Yellow No. 5 0.0001 wt %, photostabilizer 0.05 wt %"}, "[16]": {"conditions": "Red No. 106 0.00001 wt % + Yellow No. 5 0.0001 wt %, photostabilizer 0.3 wt %"}, "[17]": {"conditions": "Red No. 106 0.00001 wt % + Yellow No. 203 0.0001 wt %, photostabilizer 0.05 wt %"}, "[18]": {"conditions": "Red No. 106 0.00001 wt % + Yellow No. 203 0.0001 wt %, photostabilizer 0.1 wt %"}, "[19]": {"conditions": "Red No. 106 0.00001 wt % + Yellow No. 203 0.0001 wt %, photostabilizer 0.3 wt %"}, "[20]": {"conditions": "Red No. 106 0.00001 wt %, photostabilizer 0.05 wt %"}, "[21]": {"conditions": "Red No. 106 0.00001 wt %, photostabilizer 0.1 wt %"}, "[22]": {"conditions": "Red No. 106 0.00001 wt %, photostabilizer 0.3 wt %"}, "[23]": {"conditions": "Red No. 106 0.0001 wt %, photostabilizer 0.03 wt %"}, "[24]": {"conditions": "Red No. 106 0.0001 wt %, photostabilizer 0.05 wt %"}, "[25]": {"conditions": "Red No. 106 0.0001 wt %, photostabilizer 0.1 wt %"}, "[26]": {"conditions": "Red No. 213 0.00001 wt % + Blue No. 1 0.00001 wt %, photostabilizer 0.03 wt %"}, "[27]": {"conditions": "Red No. 213 0.00001 wt % + Blue No. 1 0.00001 wt %, photostabilizer 0.05 wt %"}, "[28]": {"conditions": "Red No. 213 0.00001 wt % + Blue No. 1 0.00001 wt %, photostabilizer 0.1 wt %"}, "[29]": {"conditions": "Red No. 213 0.00001 wt %, photostabilizer 0.03 wt %"}, "[30]": {"conditions": "Red No. 213 0.00001 wt %, photostabilizer 0.1 wt %"}, "[31]": {"conditions": "Red No. 213 0.00001 wt %, photostabilizer 0.3 wt %"}, "[32]": {"conditions": "Red No. 213 0.0001 wt %, photostabilizer 0.03 wt %"}, "[33]": {"conditions": "Red No. 213 0.0001 wt %, photostabilizer 0.05 wt %"}, "[34]": {"conditions": "Red No. 213 0.0001 wt %, photostabilizer 0.1 wt %"}, "[35]": {"conditions": "Red No. 227 0.00001 wt %, photostabilizer 0.05 wt %"}, "[36]": {"conditions": "Red No. 227 0.00001 wt %, photostabilizer 0.1 wt %"}, "[37]": {"conditions": "Red No. 227 0.00001 wt %, photostabilizer 0.3 wt %"}}, "data": [{"smiles": "Oc1nncc(N2CCOCC2)c1N1CCOCC1", "note": "[4,5-Dimorpholino-3-hydroxypyridazine]", "values": [{"measurement": "Judgment (patch test, average skin reaction score)", "setting": "skin (antebrachium); Cream", "result": "A (average score is 0.)"}, {"measurement": "Judgment (patch test, average skin reaction score)", "setting": "skin (antebrachium); Lotion", "result": "A (average score is 0.)"}, {"measurement": "Sunlight exposure (80 MJ) Appearance", "setting": "[1]; [2]", "result": "A"}, {"measurement": "Sunlight exposure (80 MJ) ΔE", "setting": "[1]; [2]", "result": 1.00}, {"measurement": "Sunlight exposure (80 MJ) Appearance", "setting": "[1]; [3]", "result": "A"}, {"measurement": "Sunlight exposure (80 MJ) ΔE", "setting": "[1]; [3]", "result": 0.62}, {"measurement": "Sunlight exposure (80 MJ) Appearance", "setting": "[1]; [4]", "result": "A"}, {"measurement": "Sunlight exposure (80 MJ) ΔE", "setting": "[1]; [4]", "result": 0.25}, {"measurement": "Sunlight exposure (80 MJ) Appearance", "setting": "[1]; [5]", "result": "A"}, {"measurement": "Sunlight exposure (80 MJ) ΔE", "setting": "[1]; [5]", "result": 1.25}, {"measurement": "Sunlight exposure (80 MJ) Appearance", "setting": "[1]; [6]", "result": "A"}, {"measurement": "Sunlight exposure (80 MJ) ΔE", "setting": "[1]; [6]", "result": 1.11}, {"measurement": "Sunlight exposure (80 MJ) Appearance", "setting": "[1]; [7]", "result": "A"}, {"measurement": "Sunlight exposure (80 MJ) ΔE", "setting": "[1]; [7]", "result": 0.70}, {"measurement": "Sunlight exposure (80 MJ) Appearance", "setting": "[1]; [8]", "result": "A"}, {"measurement": "Sunlight exposure (80 MJ) ΔE", "setting": "[1]; [8]", "result": 0.56}, {"measurement": "Sunlight exposure (80 MJ) Appearance", "setting": "[1]; [9]", "result": "A"}, {"measurement": "Sunlight exposure (80 MJ) ΔE", "setting": "[1]; [9]", "result": 0.08}, {"measurement": "Sunlight exposure (80 MJ) Appearance", "setting": "[1]; [10]", "result": "A"}, {"measurement": "Sunlight exposure (80 MJ) ΔE", "setting": "[1]; [10]", "result": 0.02}, {"measurement": "Sunlight exposure (80 MJ) Appearance", "setting": "[1]; [11]", "result": "A"}, {"measurement": "Sunlight exposure (80 MJ) ΔE", "setting": "[1]; [11]", "result": 0.75}, {"measurement": "Sunlight exposure (80 MJ) Appearance", "setting": "[1]; [12]", "result": "A"}, {"measurement": "Sunlight exposure (80 MJ) ΔE", "setting": "[1]; [12]", "result": 0.31}, {"measurement": "Sunlight exposure (80 MJ) Appearance", "setting": "[1]; [13]", "result": "A"}, {"measurement": "Sunlight exposure (80 MJ) ΔE", "setting": "[1]; [13]", "result": 0.06}, {"measurement": "Sunlight exposure (80 MJ) Appearance", "setting": "[1]; [14]", "result": "A"}, {"measurement": "Sunlight exposure (80 MJ) ΔE", "setting": "[1]; [14]", "result": 0.97}, {"measurement": "Sunlight exposure (80 MJ) Appearance", "setting": "[1]; [15]", "result": "A"}, {"measurement": "Sunlight exposure (80 MJ) ΔE", "setting": "[1]; [15]", "result": 0.55}, {"measurement": "Sunlight exposure (80 MJ) Appearance", "setting": "[1]; [16]", "result": "A"}, {"measurement": "Sunlight exposure (80 MJ) ΔE", "setting": "[1]; [16]", "result": 0.12}, {"measurement": "Sunlight exposure (80 MJ) Appearance", "setting": "[1]; [17]", "result": "A"}, {"measurement": "Sunlight exposure (80 MJ) ΔE", "setting": "[1]; [17]", "result": 0.77}, {"measurement": "Sunlight exposure (80 MJ) Appearance", "setting": "[1]; [18]", "result": "A"}, {"measurement": "Sunlight exposure (80 MJ) ΔE", "setting": "[1]; [18]", "result": 0.25}, {"measurement": "Sunlight exposure (80 MJ) Appearance", "setting": "[1]; [19]", "result": "A"}, {"measurement": "Sunlight exposure (80 MJ) ΔE", "setting": "[1]; [19]", "result": 0.11}, {"measurement": "Sunlight exposure (80 MJ) Appearance", "setting": "[1]; [20]", "result": "A"}, {"measurement": "Sunlight exposure (80 MJ) ΔE", "setting": "[1]; [20]", "result": 1.01}, {"measurement": "Sunlight exposure (80 MJ) Appearance", "setting": "[1]; [21]", "result": "A"}, {"measurement": "Sunlight exposure (80 MJ) ΔE", "setting": "[1]; [21]", "result": 0.55}, {"measurement": "Sunlight exposure (80 MJ) Appearance", "setting": "[1]; [22]", "result": "A"}, {"measurement": "Sunlight exposure (80 MJ) ΔE", "setting": "[1]; [22]", "result": 0.12}, {"measurement": "Sunlight exposure (80 MJ) Appearance", "setting": "[1]; [23]", "result": "A"}, {"measurement": "Sunlight exposure (80 MJ) ΔE", "setting": "[1]; [23]", "result": 0.95}, {"measurement": "Sunlight exposure (80 MJ) Appearance", "setting": "[1]; [24]", "result": "A"}, {"measurement": "Sunlight exposure (80 MJ) ΔE", "setting": "[1]; [24]", "result": 0.82}, {"measurement": "Sunlight exposure (80 MJ) Appearance", "setting": "[1]; [25]", "result": "A"}, {"measurement": "Sunlight exposure (80 MJ) ΔE", "setting": "[1]; [25]", "result": 0.43}, {"measurement": "Sunlight exposure (80 MJ) Appearance", "setting": "[1]; [26]", "result": "A"}, {"measurement": "Sunlight exposure (80 MJ) ΔE", "setting": "[1]; [26]", "result": 1.21}, {"measurement": "Sunlight exposure (80 MJ) Appearance", "setting": "[1]; [27]", "result": "A"}, {"measurement": "Sunlight exposure (80 MJ) ΔE", "setting": "[1]; [27]", "result": 0.97}, {"measurement": "Sunlight exposure (80 MJ) Appearance", "setting": "[1]; [28]", "result": "A"}, {"measurement": "Sunlight exposure (80 MJ) ΔE", "setting": "[1]; [28]", "result": 0.73}, {"measurement": "Sunlight exposure (80 MJ) Appearance", "setting": "[1]; [29]", "result": "B"}, {"measurement": "Sunlight exposure (80 MJ) ΔE", "setting": "[1]; [29]", "result": 1.24}, {"measurement": "Sunlight exposure (80 MJ) Appearance", "setting": "[1]; [30]", "result": "A"}, {"measurement": "Sunlight exposure (80 MJ) ΔE", "setting": "[1]; [30]", "result": 0.45}, {"measurement": "Sunlight exposure (80 MJ) Appearance", "setting": "[1]; [31]", "result": "A"}, {"measurement": "Sunlight exposure (80 MJ) ΔE", "setting": "[1]; [31]", "result": 0.12}, {"measurement": "Sunlight exposure (80 MJ) Appearance", "setting": "[1]; [32]", "result": "B"}, {"measurement": "Sunlight exposure (80 MJ) ΔE", "setting": "[1]; [32]", "result": 1.11}, {"measurement": "Sunlight exposure (80 MJ) Appearance", "setting": "[1]; [33]", "result": "A"}, {"measurement": "Sunlight exposure (80 MJ) ΔE", "setting": "[1]; [33]", "result": 0.78}, {"measurement": "Sunlight exposure (80 MJ) Appearance", "setting": "[1]; [34]", "result": "A"}, {"measurement": "Sunlight exposure (80 MJ) ΔE", "setting": "[1]; [34]", "result": 0.32}, {"measurement": "Sunlight exposure (80 MJ) Appearance", "setting": "[1]; [35]", "result": "A"}, {"measurement": "Sunlight exposure (80 MJ) ΔE", "setting": "[1]; [35]", "result": 0.69}, {"measurement": "Sunlight exposure (80 MJ) Appearance", "setting": "[1]; [36]", "result": "A"}, {"measurement": "Sunlight exposure (80 MJ) ΔE", "setting": "[1]; [36]", "result": 0.32}, {"measurement": "Sunlight exposure (80 MJ) Appearance", "setting": "[1]; [37]", "result": "A"}, {"measurement": "Sunlight exposure (80 MJ) ΔE", "setting": "[1]; [37]", "result": 0.11}]}]}
